The values below come from ChEMBL document CHEMBL1131999, “Design, synthesis and testing of amino-bicycloaryl based orally bioavailable thrombin inhibitors” (Bioorg Med Chem Lett, 1999).

Structures are written as SMILES.

One data set has as its system Caco-2. Conditions: Homo sapiens.
Another data set deals with Serine protease 1 (Homo sapiens, UniProt P07477). Description: In vitro trypsin inhibition.
The next data set has as its target Prothrombin (Homo sapiens, UniProt P00734). Description: In vitro thrombin inhibition.
Data set [1] in a line: Oral bioavailability in dog. The class given is ADME, organism-based, Canis lupus familiaris. The conditions noted are these: in vivo.

Chain of Serine protease 1 (P07477 whole entry): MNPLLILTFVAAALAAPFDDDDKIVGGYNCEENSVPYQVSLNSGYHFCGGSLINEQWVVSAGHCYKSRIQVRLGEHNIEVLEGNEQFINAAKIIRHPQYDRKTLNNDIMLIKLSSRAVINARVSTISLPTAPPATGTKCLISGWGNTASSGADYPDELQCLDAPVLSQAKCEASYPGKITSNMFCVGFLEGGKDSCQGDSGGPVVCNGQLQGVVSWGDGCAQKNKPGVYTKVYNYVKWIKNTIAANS
Description for Caco-2: The compound was evaluated in vitro for the Caco-2 cell permeability.

As for `COc1ccc2ccc(S(=O)(=O)NC(Cc3cc4c(N)nccc4s3)C(=O)N3CCC(C(C)=O)CC3)cc2c1` (stereo not given), the Papp in the data set on Caco-2 came out at 2.3 ×10⁻⁶ cm/s. Further, the figures for the IC50 on Serine protease 1 and at Prothrombin were 2 µM and 1.4 µM, respectively.

In the data set on Caco-2, `CC1CCN(C(=O)C(Cc2cc3c(N)nccc3s2)NS(=O)(=O)c2ccc3ccccc3c2)CC1` (stereo not given) returned a Papp of 11.7 ×10⁻⁶ cm/s. The IC50 was found to be 205 µM at Serine protease 1 and 209 µM on Prothrombin.

As to `COc1ccc2ccc(S(=O)(=O)NC(Cc3ccc4c(N)nccc4c3)C(=O)N3CCC(C)CC3)cc2c1` (stereo not given), the Papp in the data set with Caco-2 is 7.5 ×10⁻⁶ cm/s. Further, the IC50 against Serine protease 1 stood at 27 µM; against Prothrombin, 48 µM.

Consider `COc1ccc2ccc(S(=O)(=O)NC(Cc3cc4c(N)nccc4s3)C(=O)N3CCN(C)CC3)cc2c1` (stereo not given), for which the values for the IC50 on Serine protease 1 and on Prothrombin were 13 µM and 6 µM, respectively.

With `COc1ccc2ccc(S(=O)(=O)NC(Cc3ccc4ccnc(N)c4c3)C(=O)N3CCC(C)CC3)cc2c1` (stereo not given), the values for the IC50 against Serine protease 1 and against Prothrombin were 8 µM and 0.63 µM, respectively.

Turning to `COc1ccc2ccc(S(=O)(=O)NC(Cc3cc4c(N)nccc4s3)C(=O)N3CCN(S(C)(=O)=O)CC3)cc2c1` (stereo not given), the IC50 against Serine protease 1 was 18 µM; against Prothrombin it was 0.56 µM.

Regarding `CC1CCN(C(=O)C(Cc2cccc(C(=N)N)c2)NS(=O)(=O)c2ccc3ccccc3c2)CC1` (stereo not given), the IC50 against Serine protease 1 came to 1.9 µM; against Prothrombin, 0.64 µM.

For `COc1cc2ccc(S(=O)(=O)NC(Cc3cc4c(N)nccc4s3)C(=O)N3CCC(C)CC3)cc2cc1OC` (stereo not given), the IC50 is 4 µM on Serine protease 1 and 5 µM on Prothrombin.

In the data set with Caco-2, `COc1ccc2ccc(S(=O)(=O)NC(Cc3cc4c(N)nccc4o3)C(=O)N3CCC(C)CC3)cc2c1` (stereo not given) displayed a Papp of 0.9 ×10⁻⁶ cm/s. The IC50 at Serine protease 1 was found to be 6 µM; on Prothrombin, 1.58 µM.

With `COc1ccc2ccc(S(=O)(=O)NC(Cc3cc4c(N)nccc4s3)C(=O)N3CCC(C)CC3)cc2c1` (stereo not given), the Papp in the data set with Caco-2 was 12.1 ×10⁻⁶ cm/s. For the same compound, the IC50 against Serine protease 1 is 4 µM. In data set [1], this compound gave a bioavailability of 36%.

In general, Papp refers to a coefficient for how fast a substance crosses the barrier. The term IC50 denotes the point on the concentration scale where inhibition reaches its midpoint. The term bioavailability denotes the share of a dose that reaches the circulation, judged against a reference dose that is usually intravenous. High values mean much systemic uptake, low ones little systemic uptake.
